In patent US4661516A, “Diaminocyclohexane platinum complexes” (Research Corporation, priority 1984, dated 1987):

How the values were obtained:
[1] = tested on: Wild type L1210 leukemic cells; assay: In vitro cytotoxicity, wild type L1210 leukemic cells (L1210/0); type: cell-based; conditions: L1210, 72 hours incubation
Experimental: Four ml of cell suspension (10^5 cells/ml) are added to culture tubes and the appropriate concentration (0.01, 0.1, 1 or 10 μg/ml final concentration) of drug added to the culture tubes. After 72 hours of incubation, the cell concentration of control and experimental cultures are determined with the aid of a Coulter Counter® Model ZBf and the percent inhibition calculated. […]

L1210 cells = assay: In vivo anti-tumor activity, L1210, single i.p. injection; design: species or system BDF1 mice; conditions: single i.p.
Experimental: About 24 hours after inoculation of the cells, the mice were injected intraperitoneally with varying dosages of complexes of the present invention. […] Long term survival signifies that animals were alive 60 days after inoculation with L1210 cells.

L1210/0 leukemia cells = assay: In vivo anti-tumor activity, L1210 (L1210/0), multiple i.p. doses; design: species or system BDF1 mice; conditions: for LTS: survivors/treated 50 days after treatment
Experimental: BDF1 mice were inoculated intraperitoneally with 10^6 L1210 cells. About 24 hours after inoculation of the cells, the mice were injected intraperitoneally with varying dosages of complexes of the present invention. Six mice were used for each dosage level in each experiment with an equal number of control mice inoculated with 10^6 L1210 cells and left untreated with a given complex. The results [%T/C=(survival time of treated animals/survival time of control animals)×100] are set forth below. Long term survival signifies that animals were alive 60 days after inoculation with L1210 cells.
The procedure of Example 16 was repeated except that the treated animals were injected with multiple doses of the complex as indicated below:
The anti-tumor activity of compound number 3 was evaluated against cells sensitive to (L1210/0) and resistant to (L1210/PDD) the standard platinum complex cis-diamminedichloroplatinum(II).
The following complexes were tested in vivo oncolytic activity following 3 i.p. injections (days 1, 5, 9) according to the protocol described in Examples 16 and 17.
BDF1 mice were innoculated intraperitoreally with 10^6 L1210 leukemia cells and treatment was begun on the next day (day 1). Two treatment schedules, i.e. single i.p. injection of the drug and i.p. injections on days 1, 5 and 9 according to the protocol described in Examples 16 and 17 were used.

[2] = tested on: L1210 leukemia cells (L1210/PDD); assay: In vitro cytotoxicity / cross-resistance, L1210/PDD (L1210/DDP) cells resistant to cisdiamminedichloroplatinum(II); type: cell-based; conditions: L1210/DDP, Tables VII and VIII; 5760 min
Experimental: Four ml of cell suspension were added to culture tubes and the appropriate concentration (0.01, 0.1, 1 or 10 μg/ml final drug concentration) was added. After 96 hours the cell concentration of control and experimental cultures were calculated with the aid of a Coulter Counter® Model ZBf and the percent inhibition calculated.

[3] = 6.25 mg/kg i.p., days 1, 5, 9, 30 day observation period
[4] = 12.5 mg/kg i.p., days 1, 5, 9, 30 day observation period
[5] = 25 mg/kg i.p., days 1, 5, 9, 30 day observation period

Molecule	ID50 [1]	% T/C (L1210 cells; 25 mg/kg)	% T/C (L1210 cells; 50 mg/kg)	% T/C (L1210 cells; 12.5 mg/kg)	also measured
NC1CCCCC1N.O=C([O-])C1CC(O)CN1.O=C([O-])C1CC(O)CN1.[Pt+2] (mixture of isomers) [Compound 17, cis-bis-L-hyroxyprolinato(DACH)Pt(II).1H2 O]	2.7 µg/mL	160%	170%		% T/C (L1210 cells; 100 mg/kg): Toxic
NC1CCCCC1N.O.O=C1CC(C(=O)[O-])C(C(=O)[O-])O1.[Pt+2] (racemic) [Compound 12, DL-isocitratolactone(DACH)Pt(II).1H2 O]	1.0 µg/mL	133%	145%		% T/C (L1210/0 leukemia cells; 25 mg/kg, days 1,5,9): 219%; % T/C (L1210/0 leukemia cells; 50 mg/kg, days 1,5,9): 165%; % T/C (L1210 cells; 100 mg/kg): Toxic
NC1CCCCC1N.O.O=C([O-])C1CCCCN1.O=C([O-])C1CCCCN1.[Pt+2] (racemic) [Compound 18, cis-bis-DL-pipecolinato(DACH)Pt(II).1H2 O]	0.44 µg/mL	180%	Toxic	145%	
NC1CCCCC1N.O=C([O-])[C@@H]1CCC[C@H]1C(=O)[O-].[Pt+2] (racemic) [Compound 27, trans-DL-1,2-cyclopentanedicarboxylato(DACH)Pt(II)]	0.4 µg/mL	159%	183%	158%	
NC1CCCCC1N.O=C1OC(C(O)CO)C([O-])=C1O.O=C1OC(C(O)CO)C([O-])=C1O.[Pt+2] (stereo not drawn) [Compound 6, cis-bis-ascorbato(cis-DACH)Pt(II).5H2 O]			Toxic		ID50 ([1]; 4320 min): 4.0 µg/mL; % T/C (L1210 cells; 100 mg/kg): Toxic
NC1CCCCC1N.O.O.O=C([O-])C1=CC(O)C(O)C(O)C1.O=C([O-])C1=CC(O)C(O)C(O)C1.[Pt+2] (stereo not drawn) [Compound 10, cis-bis-shikimato(DACH)Pt(II).2H2 O]			140%		% T/C (L1210/0 leukemia cells; 12.5 mg/kg, days 1,5,9): 139%; % T/C (L1210/0 leukemia cells; 25 mg/kg, days 1,5,9): 149%; % T/C (L1210/0 leukemia cells; 50 mg/kg, days 1,5,9): 222%; Long Term Survivors (L1210/0 leukemia cells; 50 mg/kg, days 1,5,9): 1/6; % T/C (L1210 cells; 100 mg/kg): 217%; Long Term Survivors (L1210 cells; 100 mg/kg, alive 60 days after inoculation): 2/6
NC1CCCCC1N.O.O.O=S(=O)([O-])CCO.O=S(=O)([O-])CCO.[Pt+2] (stereo not drawn) [Compound 13, cis-bis-isethionato(DACH)Pt(II).2H2 O]	0.43 µg/mL		Toxic		% T/C (L1210 cells; 5 mg/kg): 153%; % T/C (L1210 cells; 10 mg/kg): 180%; % T/C (L1210 cells; 20 mg/kg): 140%; animals died of apparent drug toxicity (L1210 cells; 20 mg/kg): 2/6; Long Term Survivors (L1210 cells; 20 mg/kg, alive 60 days after inoculation): 1/6
NC1CCCCC1N.NCCOS(=O)(=O)[O-].NCCOS(=O)(=O)[O-].[Pt+2] (stereo not drawn) [Compound 14, cis-bis-2-aminoethylsulfato(DACH)Pt(II)]	4.3 µg/mL				ID50 L1210/DDP [2]: 3.7 µg/mL
NC1CCCCC1N.O.O=C([O-])C1CCN1.O=C([O-])C1CCN1.[Pt+2] [Compound 15, cis-bis-L-azetidinecarboxylato(DACH)Pt(II).1H2 O]	3.6 µg/mL	148%	161%	157%	% T/C (L1210 cells; 100 mg/kg): Toxic
NC1CCCCC1N.O.O=C([O-])C1(C(=O)[O-])CC1.[Pt+2] [Compound 20, cyclopropane-1,1-dicarboxylato(DACH)Pt(II).H2 O]	0.41 µg/mL				
NC1CCCCC1N.O.O=C([O-])C1CCCCC1.O=C([O-])C1CCCCC1.[Pt+2] [Compound 22, Cis-bis-cyclohexanecarboxylato(DACH)Pt(II).1H2 O]	0.5 µg/mL		140%		% T/C (L1210 cells; 100 mg/kg): 170%
NC1CCCCC1N.O.O=C([O-])CC1(CC(=O)[O-])CCCCC1.[Pt+2] [Compound 23, 1,1-cyclohexanediacetato(DACH)Pt(II).1H2 O]	0.6 µg/mL				
NC1CCCCC1N.O.O=C([O-])C1CCCC1.O=C([O-])C1CCCC1.[Pt+2] (stereo not drawn) [Compound 25, Cis-bis-cyclopentanecarboxylato(DACH)Pt(II).1H2 O]	0.3 µg/mL	178%	163%	161%	% T/C (L1210/0 leukemia cells; [3]): 202%; % T/C (L1210/0 leukemia cells; [4]): 246%; % T/C (L1210/0 leukemia cells; [5]): 253%
NC1CCCCC1N.O.O=C([O-])C1CC1.O=C([O-])C1CC1.[Pt+2] (stereo not drawn) [Compound 29, Cis-bis-cyclopropanecarboxylato(DACH)Pt(II).1H2 O]	0.3 µg/mL	176%	199%	252%	LTS (L1210 cells; 12.5 mg/kg): 1/6; Long Term Survivors (LTS) (L1210 cells; 50 mg/kg, alive 60 days after inoculation): 1/6
NC1CCCCC1N.O.O=C([O-])C1CCC1.O=C([O-])C1CCC1.[Pt+2] (stereo not drawn) [Compound 30, Cis-bis-cyclobutanecarboxylato(DACH)Pt.1H2 O]	0.4 µg/mL	154%	145%	149%	
CCS(=O)(=O)[O-].CCS(=O)(=O)[O-].NC1CCCCC1N.O.[Pt+2] (stereo not drawn) [Compound 31, Cis-bis-ethanesulfonato(DACH)Pt(II).H2 O]	3.1 µg/mL	134%	153%	109%	% T/C (L1210/0 leukemia cells; 50 mg/kg i.p., days 1, 5, 9, 30 day observation period): 198%; LTS (L1210/0 leukemia cells; 50 mg/kg, days 1, 5, 9): 1/6; % T/C (L1210/0 leukemia cells; 100 mg/kg i.p., days 1, 5, 9, 30 day observation period): 295%; LTS (L1210/0 leukemia cells; 100 mg/kg, days 1, 5, 9): 2/6
NC1CCCCC1N.NCC(=O)[O-].NCC(=O)[O-].O.[Pt+2] (stereo not drawn) [Compound 32, Cis-bis-glycinato(DACH)Pt(II).1H2 O]	2.5 µg/mL	131%	158%	128%	
NC1CCCCC1N.O=S(=O)([O-])CCCl.O=S(=O)([O-])CCCl.[Pt+2] (stereo not drawn) [Compound 33, Cis-bis-chloroethanesulfonato(DACH)Pt(II).1H 2 O]	0.3 µg/mL	144%	Toxic	188%	
NC1CCCCC1N.O=C([O-])CN(CCO)CCO.O=C([O-])CN(CCO)CCO.[Pt+2] [Compound 34, Cis-bis-bicinato(DACH)Pt(II)]	1.2 µg/mL	151%	160%	165%	
NC1CCCCC1N.O.O.O=C([O-])CNCC(=O)[O-].[Pt+2] [Compound 35, Iminodiacetato(trans-R,R--DACH)Pt(II).2H2 O]	3.0 µg/mL				Long Term Survivors (L1210/0 leukemia cells; Tables X and XI, days 1, 5 and 9, at maximal effective dose, alive 60 days after tumor inoculation): 2/6; Maximal Effective Dose (L1210/0 leukemia cells; Tables X and XI, i.p. on days 1, 5 and 9): 25 mg/kg; % T/C (L1210/0 leukemia cells; Tables X and XI, i.p. on days 1, 5 and 9, at maximal effective dose): 437%
NC1CCCCC1N.O.O.O=C([O-])C1CCCN1.O=C([O-])C1CCCN1.[Pt+2] [Compound 36, Cis-bis-L-prolinato(trans-R,R--DACH)Pt(II).2H2 O]	0.8 µg/mL	212%	149%	179%	Long Term Survivors (LTS) (L1210 cells; 25 mg/kg): 1/6
NC1CCCCC1N.O=C([O-])[C@@H]1C[C@H]1C(=O)[O-].[Pt+2] [Compound 40, trans-1,2-cyclopropanedicarboxylato(DACH)Pt(II)]	0.4 µg/mL				
NC1CCCCC1N.O=C([O-])[C@@H]1CC[C@H]1C(=O)[O-].[Pt+2] [Compound 41, trans-1,2-cyclobutanedicarboxylato(DACH)Pt(II)]	0.5 µg/mL				
Cis-bis-cyclohexenecarboxylato(DACH)Pt(II).1H2 O [Compound 24]	1.0 µg/mL	132%	165%		% T/C (L1210 cells; 100 mg/kg): 105%
Cis-bis-cyclopentenecarboxylato(DACH)Pt(II).2H2 O [Compound 26]	1.3 µg/mL	158%	157%	185%	% T/C (L1210/0 leukemia cells; [3]): 189%; % T/C (L1210/0 leukemia cells; [4]): 356%; LTS (L1210/0 leukemia cells; 12.5 mg/kg, days 1, 5, 9): 1/6; % T/C (L1210/0 leukemia cells; [5]): 300%; LTS (L1210/0 leukemia cells; 25 mg/kg, days 1, 5, 9): 1/6
